Reference: the supplement of paper PMC10307832

Assays:
Assay in all cases: relative viability (nuclei count vs DMSO), 5 days (fraction); higher = more cells survive
Carboplatin + Dasatinib = compound: C1CC(C1)(C(=O)O)C(=O)O.[NH2-].[NH2-].[Pt+2] [Carboplatin] + Cc1nc(Nc2ncc(C(=O)Nc3c(C)cccc3Cl)s2)cc(N2CCN(CCO)CC2)n1 [Dasatinib] (partner 0.075 µM)
Method in brief: (§1)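 Five library-drug doses in √10 steps were combined with a fixed anchor-drug dose, or a single drug was given alone, by pin tool to lung cancer cell lines in 1536-well plates the day after seeding. Nuclei were stained and counted after 5 days. Relative viability is the nuclei count in treated wells over that in vehicle wells, taken as the median of duplicate plates.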

GSK126 + Palbociclib = compound: CC[C@H](C)N1C=C(C2=C(C=C(C=C21)C3=CN=C(C=C3)N4CCNCC4)C(=O)NCC5=C(C=C(NC5=O)C)C)C [GSK126] + CC(=O)c1c(C)c2cnc(Nc3ccc(N4CCNCC4)cn3)nc2n(C2CCCC2)c1=O [Palbociclib] (partner 0.5 µM)
Method in brief: as §1

GSK126 + Navitoclax = compound: CC[C@H](C)N1C=C(C2=C(C=C(C=C21)C3=CN=C(C=C3)N4CCNCC4)C(=O)NCC5=C(C=C(NC5=O)C)C)C [GSK126] + CC1(C)CCC(c2ccc(Cl)cc2)=C(CN2CCN(c3ccc(C(=O)NS(=O)(=O)c4ccc(N[C@H](CCN5CCOCC5)CSc5ccccc5)c(S(=O)(=O)C(F)(F)F)c4)cc3)CC2)C1 [Navitoclax] (partner 0.5 µM)
Method in brief: as §1

GSK126 + Pemetrexed = compound: CC[C@H](C)N1C=C(C2=C(C=C(C=C21)C3=CN=C(C=C3)N4CCNCC4)C(=O)NCC5=C(C=C(NC5=O)C)C)C [GSK126] + Nc1nc2[nH]cc(CCc3ccc(C(=O)N[C@@H](CCC(=O)O)C(=O)O)cc3)c2c(=O)[nH]1 [Pemetrexed] (partner 0.2 µM)
Method in brief: as §1

Row | Cell Line | relative viability (Carboplatin + Dasatinib; first compound 0.08 µM) | relative viability (Carboplatin + Dasatinib; first compound 0.253 µM) | relative viability (Carboplatin + Dasatinib; first compound 0.8 µM) | relative viability (Carboplatin + Dasatinib; first compound 2.53 µM) | relative viability (Carboplatin + Dasatinib; first compound 8 µM) | relative viability (GSK126 + Palbociclib; first compound 0.08 µM) | relative viability (GSK126 + Palbociclib; first compound 0.253 µM) | relative viability (GSK126 + Palbociclib; first compound 0.8 µM) | relative viability (GSK126 + Palbociclib; first compound 2.53 µM) | relative viability (GSK126 + Palbociclib; first compound 8 µM) | relative viability (GSK126 + Navitoclax; first compound 0.08 µM) | relative viability (GSK126 + Navitoclax; first compound 0.253 µM) | relative viability (GSK126 + Navitoclax; first compound 0.8 µM) | relative viability (GSK126 + Navitoclax; first compound 2.53 µM) | relative viability (GSK126 + Navitoclax; first compound 8 µM) | relative viability (GSK126 + Pemetrexed; first compound 0.08 µM) | relative viability (GSK126 + Pemetrexed; first compound 0.253 µM) | relative viability (GSK126 + Pemetrexed; first compound 0.8 µM) | relative viability (GSK126 + Pemetrexed; first compound 2.53 µM) | relative viability (GSK126 + Pemetrexed; first compound 8 µM)
1 | ChaGo-K-1 | 0.559 | 0.61 | 0.612 | 0.477 | 0.309 | 0.93 | 0.905 | 0.914 | 1.04 | 0.914 | 1.19 | 0.925 | 1.03 | 1.27 | 1.09 | 0.256 | 0.269 | 0.265 | 0.256 | 0.254
2 | EBC-1 | – | – | – | – | – | – | – | – | – | – | 0.449 | 0.407 | 0.365 | 0.477 | 0.362 | – | – | – | – | –
3 | EKVX | 0.603 | 0.582 | 0.48 | 0.446 | 0.495 | 0.455 | 0.366 | 0.38 | 0.405 | 0.363 | 0.984 | 0.95 | 0.902 | 0.97 | 0.853 | 0.403 | 0.373 | 0.413 | 0.374 | 0.31
4 | EMC-BAC-2 | 0.327 | 0.343 | 0.305 | 0.271 | 0.281 | 0.519 | 0.515 | 0.516 | 0.503 | 0.499 | 1.09 | 1.18 | 1.14 | 1.18 | 1.23 | 0.421 | 0.46 | 0.46 | 0.419 | 0.376
5 | EPLC-272H | 0.455 | 0.342 | 0.326 | 0.365 | 0.399 | 0.344 | 0.324 | 0.33 | 0.374 | 0.301 | 1.24 | 1.15 | 1.29 | 1.17 | 1.2 | 0.327 | 0.327 | 0.26 | 0.366 | 0.322
6 | H3255 | 0.367 | 0.416 | 0.418 | 0.415 | 0.334 | 0.291 | 0.316 | 0.319 | 0.296 | 0.31 | 0.591 | 0.606 | 0.5 | 0.522 | 0.505 | 0.596 | 0.548 | 0.568 | 0.898 | 0.58
7 | HARA | 0.205 | 0.252 | 0.209 | 0.213 | 0.302 | 0.325 | 0.238 | 0.249 | 0.296 | 0.279 | 1.18 | 1.11 | 1.1 | 1.15 | 1.14 | 0.247 | 0.258 | 0.231 | 0.215 | 0.215
8 | HCC-15 | 0.69 | 0.645 | 0.621 | 0.591 | 0.407 | 0.759 | 0.855 | 0.692 | 0.573 | 0.671 | 0.719 | 0.662 | 0.658 | 0.676 | 0.623 | 0.221 | 0.229 | 0.224 | 0.215 | 0.238
9 | HCC-44 | – | – | – | – | – | 0.96 | 1.04 | 1.01 | 0.916 | 0.894 | 0.963 | 0.981 | 0.853 | 0.906 | 1.01 | 0.65 | 0.712 | 0.581 | 0.602 | 0.551
